Assay results as given in ChEMBL document CHEMBL5625206, “Design, synthesis, and evaluation of novel pleuromutilin aryl acrylate derivatives as promising broad-spectrum antibiotics especially for combatting multi-drug resistant gram-negative bacteria” (Eur J Med Chem, 2023).
≈ marks a conversion by molar mass, not a printed value. Calls of active or inactive are those of the source. No cut-off for these calls is given here.

Experiments:
Staphylococcus aureus [1] = assay: Inhibition of biofilm formation of methicillin-resistant Staphylococcus aureus ATCC 33591 at 8 times MIC incubated for 24 hrs by crystal violet staining based analysis relative to control; format: functional
Escherichia coli = assay: Induction of cell damage in Escherichia coli ATCC 25922 assessed as intracellular pH at MIC incubated for 30 mins by fluorescence based analysis (reference value: 6.05 +/- 0.10); format: functional; conditions: 0.5 h
Staphylococcus aureus [2] = assay: Antibacterial activity against methicillin-resistant Staphylococcus aureus ATCC 33591 assessed as bacterial growth inhibition incubated for 24 hrs by CLSI based broth microdilution method; format: functional
Staphylococcus aureus [3] = assay: Antibacterial activity against methicillin-resistant Staphylococcus aureus ATCC 33591 infected in neutropenic Kunming mouse model assessed as bacterial load reduction in kidney at 10 to 20 mg/kg, ip measured after 2 days; format: functional, organism-based; conditions: dose 10-20 mg/kg, time 2.0 day
Staphylococcus aureus [4] = assay: Antibacterial activity against methicillin-resistant Staphylococcus aureus 171 clinical isolate assessed as bacterial growth inhibition incubated for 24 hrs by CLSI based broth microdilution method; format: functional
[5] = Toxicity in fasted male Sprague-Dawley rat assessed as animal growth rate at 331 mg/kg, IG measured for 14 days (reference value: 46.53 +/- 3.19 g); format: organism-based; conditions: in vivo, po, 336 h, time 14 day
Staphylococcus aureus [6] = assay: Bactericidal activity against methicillin-resistant Staphylococcus aureus ATCC 33591 incubated for 24 hrs by time kill assay; format: functional, organism-based
[7] = Toxicity in fasted female Sprague-Dawley rat assessed as body weight at 500 mg/kg, IG measured on same day (reference value: 165.2 +/- 8.1 g); format: organism-based; conditions: in vivo, po
[8] = Toxicity in fasted male Sprague-Dawley rat assessed as body weight at 100 mg/kg, IG measured after 14 days (reference value: 311.2 +/- 13.6 g); format: organism-based; conditions: in vivo, po, 336 h, time 14 day
[9] = system: Mycoplasmoides gallisepticum; assay: Anti-mycoplasma activity against Mycoplasma gallisepticum MG-R-NCTC10115 assessed as bacterial growth inhibition incubated for 7 days; format: functional; conditions: MG-R-NCTC10115, 168 h, time 7 day
[10] = Toxicity in neutropenic Kunming mouse model infected with methicillin-resistant Staphylococcus aureus ATCC 33591 assessed as survival rate at 10 mg/kg, ip measured after 7 days relative to control; format: organism-based; conditions: in vivo, 168 h, time 7 day
[11] = Toxicity in fasted male Sprague-Dawley rat assessed as body weight at 500 mg/kg, IG measured on same day (reference value: 212.7 +/- 13.2 g); format: organism-based; conditions: in vivo, po

Structure (SMILES): C=C[C@]1(C)C[C@@H](OC(=O)COC(=O)/C=C/c2ccc(N(C)C)cc2)[C@]2(C)[C@H](C)CC[C@]3(CCC(=O)[C@H]32)[C@@H](C)[C@@H]1O
- inhibition (INH) (Staphylococcus aureus [1]): 97.64%
- pH (Escherichia coli): 4.34
- MIC (Staphylococcus aureus [2]): 2 µg/mL (≈ 3.63 µM)
- Activity (Staphylococcus aureus [3]): Active
- MIC (Staphylococcus aureus [4]): 8 µg/mL (≈ 14.5 µM)
- Activity [5]: 40.48%
- Activity (Staphylococcus aureus [6]): Dose-Dependent Effect
- Activity [7]: 159.5 g
- Activity [8]: 314.5 g
- MIC [9]: 0.004 µg/mL (≈ 0.00725 µM)
- Survival [10]: 70%
- Activity [11]: 208 g
